The source of these data is ChEMBL document CHEMBL1641568, “An on-bead assay for the identification of non-natural peptides targeting the androgen receptor-cofactor interaction” (Bioorg Med Chem, 2011).

What is called Ki is a dissociation constant, usually derived from enzyme kinetics or from competition with a known ligand.

This assay in a line: Inhibition of human GST-tagged androgen receptor-ligand binding domain/cofactor interaction assessed as fluorescence polarization by competition assay. For orientation: Polarisation of emitted light reports the rotation of a fluorescent probe.

Square brackets hold non-standard residues; d marks the D form. Peptide text beside a SMILES is read from it. Phe(4-Cl) = N[C@@H](Cc1ccc(Cl)cc1)C(=O)O; 2Nal = N[C@@H](Cc1ccc2ccccc2c1)C(=O)O; Cha = N[C@@H](CC1CCCCC1)C(=O)O

In the case of H-SSRWESWFAGEKESRG-OH, the Ki came to 82900 nM. Regarding H-SSRFESWFAGEKESRG-OH, the inhibition constant Ki came out at 940 nM. For `C[C@H](NC(=O)[C@H](Cc1c[nH]c2ccccc12)NC(=O)[C@H](CC1CCCCC1)NC(=O)[C@H](CO)NC(=O)[C@H](CCC(=O)O)NC(=O)[C@H](Cc1ccc2ccccc2c1)NC(=O)[C@H](CCCNC(=N)N)NC(=O)[C@H](CO)NC(=O)[C@@H](N)CO)C(=O)NCC(=O)N[C@@H](CCC(=O)O)C(=O)N[C@@H](CCCCN)C(=O)N[C@@H](CCC(=O)O)C(=O)N[C@@H](CO)C(=O)N[C@@H](CCCNC(=N)N)C(=O)NCC(=O)O` (H-SSR[2Nal]ES[Cha]WAGEKESRG-OH), the inhibition constant (Ki) is 470 nM. Turning to `C[C@H](NC(=O)[C@H](CC1CCCCC1)NC(=O)[C@H](Cc1ccccc1)NC(=O)[C@H](CO)NC(=O)[C@H](CCC(=O)O)NC(=O)[C@H](Cc1c[nH]c2ccccc12)NC(=O)[C@H](CCCNC(=N)N)NC(=O)[C@H](CO)NC(=O)[C@@H](N)CO)C(=O)NCC(=O)N[C@@H](CCC(=O)O)C(=O)N[C@@H](CCCCN)C(=O)N[C@@H](CCC(=O)O)C(=O)N[C@@H](CO)C(=O)N[C@@H](CCCNC(=N)N)C(=O)NCC(=O)O` (H-SSRWESF[Cha]AGEKESRG-OH), the Ki came to 2440 nM. `CC(C)C[C@H](NC(=O)[C@H](CCCNC(=N)N)NC(=O)[C@H](CO)NC(=O)[C@@H](N)CO)C(=O)N[C@@H](CCC(=O)O)C(=O)N[C@@H](CO)C(=O)N[C@@H](Cc1c[nH]c2ccccc12)C(=O)N[C@@H](Cc1ccc(Cl)cc1)C(=O)N[C@@H](C)C(=O)NCC(=O)N[C@@H](CCC(=O)O)C(=O)N[C@@H](CCCCN)C(=O)N[C@@H](CCC(=O)O)C(=O)N[C@@H](CO)C(=O)N[C@@H](CCCNC(=N)N)C(=O)NCC(=O)O` (H-SSRLESW[Phe(4-Cl)]AGEKESRG-OH): the Ki amounted to 166000 nM.

In the case of `CC(C)C[C@H](NC(=O)[C@H](CO)NC(=O)[C@H](CCC(=O)O)NC(=O)[C@H](Cc1ccc2ccccc2c1)NC(=O)[C@H](CCCNC(=N)N)NC(=O)[C@H](CO)NC(=O)[C@@H](N)CO)C(=O)N[C@@H](Cc1c[nH]c2ccccc12)C(=O)N[C@@H](C)C(=O)NCC(=O)N[C@@H](CCC(=O)O)C(=O)N[C@@H](CCCCN)C(=O)N[C@@H](CCC(=O)O)C(=O)N[C@@H](CO)C(=O)N[C@@H](CCCNC(=N)N)C(=O)NCC(=O)O` (H-SSR[2Nal]ESLWAGEKESRG-OH), the Ki stood at 3680 nM. Consider H-SSRFESLFAGEKESRG-OH, for which the Ki was 760 nM.
